From ChEMBL document CHEMBL5113531, “Discovery of Potent Cholinesterase Inhibition-Based Multi-Target-Directed Lead Compounds for Synaptoprotection in Alzheimer's Disease” (J Med Chem, 2022)
The source made the active and inactive calls. The calls are words filed in the database; no cut-off is given here.

Columns and labels:
[1] = biological target: Sigma non-opioid intracellular receptor 1 (Cavia porcellus, UniProt Q60492); type: cell membranes, Brain, Membrane;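 further: radioligand displacement of [3H]-(+)-pentazocine binding to sigma1 receptor in guinea pig brain membranes, read by scintillation counting after a 120 min incubation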
Description: Displacement of [3H]-(+)-pentazocine from sigma1 receptor in guinea pig brain membrane measured after 120 mins by scintillation counting method

[2] = biological target: T1, Sigma intracellular receptor 2 (Rattus norvegicus, UniProt Q5U3Y7); test: Displacement of [3H]DTG from sigma 2 receptor in rat liver membranes measured after 120 mins by scintillation counting method; type: cell membranes, Membrane
T1 sequence (Q5U3Y7 whole entry): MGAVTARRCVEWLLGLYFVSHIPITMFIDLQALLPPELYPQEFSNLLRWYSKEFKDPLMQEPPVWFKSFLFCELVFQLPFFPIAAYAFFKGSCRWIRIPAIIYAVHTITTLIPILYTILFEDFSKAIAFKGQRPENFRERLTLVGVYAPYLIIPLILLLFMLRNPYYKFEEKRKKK

[3] = Selectivity index, ratio of Ki for displacement of [3H]DTG from sigma 2 receptor in rat liver membranes to Ki for displacement of [3H]-(+)-pentazocine from sigma1 receptor in guinea pig brain membrane; type: cell membranes
Cholinesterase = Cholinesterase (Homo sapiens, UniProt P06276); test: Inhibition of human recombinant BuChe using butyrylthiocholine iodide as substrate incubated for 10 mins by DTNB reagent based Ellman's method
Acetylcholinesterase = Acetylcholinesterase (Homo sapiens, UniProt P22303); test: Inhibition of human recombinant AChe using acetylthiocholine iodide as substrate incubated for 10 mins by DTNB reagent based Ellman's method
[4] = biological target: Glutamate receptor ionotropic, NMDA 2B (Homo sapiens, UniProt Q13224); test: Displacement of [3H]ifenprodil from recombinant human GluN2B NMDA receptor (unknown origin) expressed in dexamethasone-induced mouse L-M(TK-) cell after 120 mins by microbeta scintillation counting method; type: cell-based
[5] = Selectivity index, ratio of Ki for displacement of [3H]-(+)-pentazocine from sigma1 receptor in guinea pig brain membrane to Ki for displacement of [3H]DTG from sigma 2 receptor in rat liver membranes; type: cell membranes
Danio rerio [6] = species: Danio rerio; test: Anti-neuroinflammatory activity in Abeta42 induced zebrafish AD model assessed as reduction in number of activated microglia relative to control; type: functional; parameters: scale not given: the % may be the effect or the level left
P2X purinoceptor 7 = biological target: T2, P2X purinoceptor 7 (Homo sapiens, UniProt Q99572); test: Antagonist activity at human P2X7 receptor expressed in HEK293 cells assessed as reduction in YO-PRO-1 iodide dye uptake preincubated for 30 mins followed by YO-PRO-1 iodide addition and measured after 120 mins by fluorescence plate reader analysis; type: cell-based
T2 sequence (Q99572 whole entry): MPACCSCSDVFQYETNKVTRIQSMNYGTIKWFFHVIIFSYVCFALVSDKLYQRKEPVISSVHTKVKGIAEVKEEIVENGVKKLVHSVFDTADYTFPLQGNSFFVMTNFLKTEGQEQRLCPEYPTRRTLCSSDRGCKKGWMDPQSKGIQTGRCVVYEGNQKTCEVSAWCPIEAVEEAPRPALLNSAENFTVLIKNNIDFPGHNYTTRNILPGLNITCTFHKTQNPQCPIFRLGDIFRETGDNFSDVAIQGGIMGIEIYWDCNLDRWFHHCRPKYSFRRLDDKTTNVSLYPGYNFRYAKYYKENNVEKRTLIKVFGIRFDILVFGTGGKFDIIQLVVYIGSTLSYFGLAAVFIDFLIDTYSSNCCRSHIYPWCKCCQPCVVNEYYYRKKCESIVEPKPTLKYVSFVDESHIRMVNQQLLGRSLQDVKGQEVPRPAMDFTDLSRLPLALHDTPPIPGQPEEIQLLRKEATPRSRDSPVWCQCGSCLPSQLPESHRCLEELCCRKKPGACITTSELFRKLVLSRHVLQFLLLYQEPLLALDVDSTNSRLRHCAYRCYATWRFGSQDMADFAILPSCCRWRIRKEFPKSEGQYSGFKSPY

SH-SY5Y [7] = test: Neuroprotective activity in H2O2 induced stress human SH-SY5Y cell model measured after 48 hrs by MTT assay; type: functional, cell-based
[8] = Hepatotoxicity in […] cells assessed as reduction in cell viability at 10 to 80 uM measured after 24 hrs by CTG- luminescence assay; type: toxicity, cell-based; settings: human
SH-SY5Y [9] = test: Neuroprotective activity in Abeta42 induced stress human SH-SY5Y cell model measured after 72 hrs by CTG luminescence assay; type: functional, cell-based
Danio rerio [10] = species: Danio rerio; test: Neuroprotective activity against Abeta42 induced zebrafish AD model assessed as reversal of reduction in synaptic integrity at 10 uM measured after 5 days; type: functional, organism-based; settings: time 5.0 day
Danio rerio [11] = species: Danio rerio; test: Neuroprotective activity against zebrafish AD model assessed as reversal of reduction in synaptic integrity at 10 uM measured after 5 days in presence of Abeta42 relative to control; type: functional; parameters: scale not given: the % may be the effect or the level left; settings: time 5 day
Danio rerio [12] = species: Danio rerio; test: Neuroprotective activity against zebrafish AD model assessed as reversal of reduction in synaptic integrity at 10 uM measured after 5 days relative to control; type: functional; parameters: scale not given: the % may be the effect or the level left; settings: time 5 day
PC-12 [13] = test: Neuroprotective activity in […] PC-12 cells assessed as induction of NGF-mediated neurite sprouting measured after 4 days by measuring fold change; type: functional, Rattus norvegicus; settings: time 4 day
PC-12 [14] = test: Neuroprotective activity in […] PC-12 cells assessed as induction of NGF-mediated neurite outgrowth measured after 4 days by measuring fold change; type: functional, Rattus norvegicus; settings: time 4 day
SH-SY5Y [15] = test: Glio-protective activity in H2O2 induced human SH-SY5Y cells measured after 48 hrs by MTT assay; type: functional, cell-based
SH-SY5Y [16] = test: Glio-protective activity in Abeta42 induced stress human SH-SY5Y cells measured after 72 hrs by CTG luminescence assay; type: functional, cell-based

Sequence of Cholinesterase (P06276 whole entry): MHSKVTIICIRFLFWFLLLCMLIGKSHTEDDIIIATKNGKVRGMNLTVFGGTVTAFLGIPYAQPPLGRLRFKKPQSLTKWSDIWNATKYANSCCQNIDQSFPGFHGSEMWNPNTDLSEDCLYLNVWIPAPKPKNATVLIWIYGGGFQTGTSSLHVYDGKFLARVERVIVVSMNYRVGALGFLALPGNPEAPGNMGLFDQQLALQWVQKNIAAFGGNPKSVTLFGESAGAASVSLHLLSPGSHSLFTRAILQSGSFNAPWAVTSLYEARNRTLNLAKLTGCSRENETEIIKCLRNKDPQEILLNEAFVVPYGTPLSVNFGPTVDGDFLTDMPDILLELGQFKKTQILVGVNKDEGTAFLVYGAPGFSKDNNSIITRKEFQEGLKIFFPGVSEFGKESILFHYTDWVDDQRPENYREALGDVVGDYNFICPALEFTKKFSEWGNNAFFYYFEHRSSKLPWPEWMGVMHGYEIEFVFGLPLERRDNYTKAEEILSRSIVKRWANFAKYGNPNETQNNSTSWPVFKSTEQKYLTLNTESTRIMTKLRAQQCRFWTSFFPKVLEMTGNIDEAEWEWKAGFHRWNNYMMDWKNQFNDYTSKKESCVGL
Sequence of Acetylcholinesterase (P22303 whole entry): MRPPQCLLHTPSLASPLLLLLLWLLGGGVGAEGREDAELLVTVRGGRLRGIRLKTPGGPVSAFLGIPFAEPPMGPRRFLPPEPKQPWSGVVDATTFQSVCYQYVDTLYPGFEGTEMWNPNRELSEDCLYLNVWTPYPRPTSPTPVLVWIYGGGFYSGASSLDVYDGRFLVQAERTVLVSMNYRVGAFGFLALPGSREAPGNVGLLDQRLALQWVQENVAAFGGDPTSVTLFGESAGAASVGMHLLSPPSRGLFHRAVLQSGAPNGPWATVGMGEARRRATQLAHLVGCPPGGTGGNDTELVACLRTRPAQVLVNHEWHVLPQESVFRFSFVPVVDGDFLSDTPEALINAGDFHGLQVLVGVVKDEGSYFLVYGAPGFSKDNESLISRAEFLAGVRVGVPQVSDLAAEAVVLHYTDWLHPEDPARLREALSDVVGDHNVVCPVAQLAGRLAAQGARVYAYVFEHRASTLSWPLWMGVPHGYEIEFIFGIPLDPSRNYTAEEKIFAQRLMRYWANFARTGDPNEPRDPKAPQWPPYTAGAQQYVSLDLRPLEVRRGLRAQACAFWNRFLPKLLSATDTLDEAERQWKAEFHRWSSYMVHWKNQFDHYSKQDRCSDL
Sequence of Sigma non-opioid intracellular receptor 1 (Q60492 whole entry): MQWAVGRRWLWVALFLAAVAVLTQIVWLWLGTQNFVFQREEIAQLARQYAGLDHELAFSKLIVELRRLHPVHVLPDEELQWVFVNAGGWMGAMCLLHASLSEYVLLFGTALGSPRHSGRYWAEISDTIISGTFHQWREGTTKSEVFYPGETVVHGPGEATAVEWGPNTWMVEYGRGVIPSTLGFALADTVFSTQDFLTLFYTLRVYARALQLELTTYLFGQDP
Sequence of Glutamate receptor ionotropic, NMDA 2B (Q13224 whole entry): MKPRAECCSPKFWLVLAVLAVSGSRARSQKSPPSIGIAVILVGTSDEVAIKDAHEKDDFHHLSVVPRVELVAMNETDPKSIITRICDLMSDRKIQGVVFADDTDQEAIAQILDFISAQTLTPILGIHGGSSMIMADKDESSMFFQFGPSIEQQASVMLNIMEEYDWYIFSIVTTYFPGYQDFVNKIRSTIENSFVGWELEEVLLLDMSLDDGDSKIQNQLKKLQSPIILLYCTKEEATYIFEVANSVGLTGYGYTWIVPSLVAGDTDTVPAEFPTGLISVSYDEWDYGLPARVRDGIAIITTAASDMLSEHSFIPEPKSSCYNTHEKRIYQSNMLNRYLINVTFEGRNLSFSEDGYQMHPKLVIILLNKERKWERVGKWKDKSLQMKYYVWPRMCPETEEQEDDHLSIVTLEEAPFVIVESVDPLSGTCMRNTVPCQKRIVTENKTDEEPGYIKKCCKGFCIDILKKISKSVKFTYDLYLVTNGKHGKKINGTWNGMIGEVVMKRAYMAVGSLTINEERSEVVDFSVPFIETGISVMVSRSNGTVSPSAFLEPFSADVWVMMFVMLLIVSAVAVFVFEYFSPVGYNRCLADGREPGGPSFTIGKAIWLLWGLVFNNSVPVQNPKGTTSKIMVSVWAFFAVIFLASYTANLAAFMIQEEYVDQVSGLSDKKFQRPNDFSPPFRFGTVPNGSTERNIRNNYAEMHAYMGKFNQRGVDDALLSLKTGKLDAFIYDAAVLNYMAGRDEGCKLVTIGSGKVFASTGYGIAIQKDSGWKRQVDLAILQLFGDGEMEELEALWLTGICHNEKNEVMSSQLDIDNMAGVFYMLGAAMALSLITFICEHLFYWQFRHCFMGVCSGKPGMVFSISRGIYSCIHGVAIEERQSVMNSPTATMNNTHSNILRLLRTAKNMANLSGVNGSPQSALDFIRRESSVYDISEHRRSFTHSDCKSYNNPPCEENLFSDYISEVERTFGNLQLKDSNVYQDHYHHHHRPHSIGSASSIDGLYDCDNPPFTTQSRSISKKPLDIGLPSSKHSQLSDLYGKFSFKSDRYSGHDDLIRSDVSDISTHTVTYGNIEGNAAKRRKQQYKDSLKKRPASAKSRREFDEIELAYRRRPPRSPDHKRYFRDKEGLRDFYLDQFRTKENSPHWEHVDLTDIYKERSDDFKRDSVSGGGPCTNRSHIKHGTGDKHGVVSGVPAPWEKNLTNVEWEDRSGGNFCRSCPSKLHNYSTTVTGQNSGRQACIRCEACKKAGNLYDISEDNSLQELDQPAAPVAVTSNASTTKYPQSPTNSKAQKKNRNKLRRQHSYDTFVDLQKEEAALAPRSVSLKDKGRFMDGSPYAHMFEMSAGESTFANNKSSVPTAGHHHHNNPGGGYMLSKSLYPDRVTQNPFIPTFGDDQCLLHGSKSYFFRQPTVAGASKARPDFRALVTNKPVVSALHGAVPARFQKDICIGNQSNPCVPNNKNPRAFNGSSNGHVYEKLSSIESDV

Compound	Ki [1] [nM]	Ki [2] [nM]	Ratio Ki [3]	IC50 (Cholinesterase) [nM]	IC50 (Acetylcholinesterase) [nM]	Ki [4] [nM]	also measured
Cc1cccc2sc(NC(=O)CCN3CCN(C(C)(C)C)CC3)nc12	147	200	1.36	> 40000	810	476	
Cc1cccc2sc(NC(=O)CCN3CCN(Cc4cc(F)ccc4F)CC3)nc12	1000	> 1000		7660	12600	> 1000	
Cc1cccc2sc(NC(=O)CCN3CCN(C4CCN(C)CC4)CC3)nc12	6000	3600		> 40000	10500	> 1000	Ratio Ki [5]: 1.66
CCOCCN1CCN(CCC(=O)Nc2nc3c(C)cccc3s2)CC1	575	1600	2.78	39000	20100	> 1000	
COc1cc2c(cc1OC)C(=O)C(CC1CCN(Cc3ccccc3)CC1)C2 (configuration not stated) [DONEPEZIL]							Activity (Danio rerio [6]): 4.3%
Cc1cccc2sc(NC(=O)CCN3CCN(c4ncccn4)CC3)nc12	505	> 1000	> 1.98	> 40000	30000	> 1000	IC50 (P2X purinoceptor 7): 1330 nM
Cc1cccc2sc(NC(=O)CCN3CCN(CC4CCCCC4)CC3)nc12	35	519	14.8	7650	340	60	Activity (SH-SY5Y [7]): Active; IC50 at 24 h [8]: 30700 nM; Activity (SH-SY5Y [9]): Active; Activity (Danio rerio [10]): Active
CCN1CCN(CCC(=O)Nc2nc3c(C)cccc3s2)CC1	543	1200	2.21	> 40000	20600	> 1000	
Cc1cccc2sc(NC(=O)CCN3CCN(CCN(C(C)C)C(C)C)CC3)nc12	809	121		> 40000	240	202	Activity (Danio rerio [11]): 37.1%; Activity (SH-SY5Y [7]): Active; Activity (Danio rerio [12]): 15.1%; fold change (FC) (PC-12 [13]): 3.7; Ratio Ki [5]: 6.68; Activity (SH-SY5Y [9]): Active; Activity (Danio rerio [10]): Active
Cc1cccc2sc(NC(=O)CCN3CCN(Cc4ccccc4F)CC3)nc12	1700	> 1000		2900	5220	> 1000	
Cc1cccc2sc(NC(=O)CCN3CCN(c4ccccn4)CC3)nc12	1000	> 1000		> 40000	17200	> 1000	IC50 (P2X purinoceptor 7): 1400 nM
CC(=O)c1ccc(N2CCN(CCC(=O)Nc3nc4c(C)cccc4s3)CC2)cc1	1000	> 1000		3040	3820	187	
Cc1cccc2sc(NC(=O)CCN3CCN(CC4CCCO4)CC3)nc12 (racemic)	109	5000	45.9	12800	7910	457	Activity (SH-SY5Y [7]): Active; fold change (FC) (PC-12 [14]): 2.4; IC50 at 24 h [8]: 46300 nM; Activity (SH-SY5Y [9]): Active; Activity (Danio rerio [10]): Active
Cc1cccc2sc(NC(=O)CCN3CCN(C(C)C)CC3)nc12	1300	1800	1.38	14400	2750	> 1000	
Cc1cccc2sc(NC(=O)CCN3CCN(Cc4cccc5ccccc45)CC3)nc12	1000	> 1000		32900	19300	> 1000	
CCCCCCN1CCN(CCC(=O)Nc2nc3c(C)cccc3s2)CC1	238	158		29300	> 40000	115	Activity (SH-SY5Y [15]): Active; Activity (SH-SY5Y [16]): Active; Ratio Ki [5]: 1.5
Cc1ccccc1N1CCN(CCC(=O)Nc2nc3c(C)cccc3s2)CC1	1000	> 1000		8630	> 40000	> 1000	
Cc1cccc2sc(NC(=O)CCN3CCN(CCN(C)C)CC3)nc12	1000	> 1000		> 40000	480	> 1000	IC50 (P2X purinoceptor 7): 2150 nM
Cc1cccc2sc(NC(=O)CCN3CCN(C4CCCCC4)CC3)nc12	24	233	9.71	3190	10900	213	IC50 at 24 h [8]: 47100 nM; Activity (SH-SY5Y [15]): Active; Activity (SH-SY5Y [16]): Active; Activity (Danio rerio [10]): Active
CCCCN1CCN(CCC(=O)Nc2nc3c(C)cccc3s2)CC1	204	1200	5.88	30100	> 40000	229	
Cc1cccc2sc(NC(=O)CCN3CCN(Cc4ccc(C(C)(C)C)cc4)CC3)nc12	238	238		9320	40000	> 1000	
